Measurements taken from ChEMBL document CHEMBL1201862, “PubChem BioAssay data set” (2004).
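Growth conditions: 96-well plates. Treatment: test compound, 48 hours, 5 concentrations. Analysis: linear interpolation between bracketing concentrations; unreached endpoints set to highest concentration. The concentration for 50% growth inhibition is given as GI50.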 Activity calls are given as the source filed them. Cut-off read from the data, not from the text of the source: active = GI50 up to about 1.1 µM and inactive = higher.

Key:
Assay in all cases: NCI-60 cell line screen, 48 h
COLO 205 = system: COLO 205
NCI/ADR-RES = system: NCI/ADR-RES
HCC 2998 = system: HCC 2998
SK-MEL-5 = system: SK-MEL-5
SN12C = system: SN12C
MCF7 = system: MCF7
SK-MEL-28 = system: SK-MEL-28
KM12 = system: KM12
CAKI-1 = system: CAKI-1
DU-145 = system: DU-145
MOLT-4 = system: MOLT-4
HT-29 = system: HT-29
NCI-H522 = system: NCI-H522
HOP-62 = system: HOP-62
NCI-H460 = system: NCI-H460
U-251 = system: U-251
SF-268 = system: SF-268
LOX IMVI = system: LOX IMVI
SNB-75 = system: SNB-75

Measured: GI50

Cc1cc(S(=O)(=O)Nc2nc3ccccc3nc2-c2ccc(Cl)cc2)c(S)cc1Cl
inactive: COLO 205 16.4 µM | NCI/ADR-RES 19.4 µM | HCC 2998 15.7 µM | SK-MEL-5 14 µM | SN12C 25.6 µM | MCF7 17 µM | SK-MEL-28 16.8 µM | KM12 17.2 µM | CAKI-1 18.7 µM | DU-145 16.3 µM | MOLT-4 13.8 µM | HT-29 17.5 µM | NCI-H522 13.6 µM | HOP-62 22.4 µM | NCI-H460 13.6 µM | U-251 16.4 µM | SF-268 17.7 µM

C#CCOC(=O)C(N)CSSCC(N)C(=O)O (centres undefined)
inactive: COLO 205 > 100 µM | NCI/ADR-RES > 100 µM | HCC 2998 > 100 µM | SK-MEL-5 > 100 µM | SN12C > 100 µM | MCF7 > 100 µM | LOX IMVI 65.9 µM | SK-MEL-28 > 100 µM | KM12 > 100 µM | CAKI-1 > 100 µM | DU-145 > 100 µM | MOLT-4 > 100 µM | SNB-75 > 100 µM | NCI-H522 > 100 µM | HOP-62 > 100 µM | NCI-H460 > 100 µM | U-251 > 100 µM | SF-268 > 100 µM

CN1CCN(CC(=O)Nc2cccc3ccccc23)CC1
inactive: COLO 205 > 100 µM | NCI/ADR-RES > 100 µM | HCC 2998 > 100 µM | SK-MEL-5 > 100 µM | SN12C > 100 µM | MCF7 > 100 µM | LOX IMVI > 100 µM | SK-MEL-28 > 100 µM | KM12 > 100 µM | CAKI-1 > 100 µM | DU-145 > 100 µM | MOLT-4 > 100 µM | HT-29 > 31.6 µM | NCI-H522 > 100 µM | HOP-62 > 100 µM | NCI-H460 > 100 µM | U-251 > 100 µM | SF-268 > 100 µM

C=C1OC2OC(C)C(NC(=O)OCC(Cl)(Cl)Cl)C(OC(C)=O)C2O1 (centres undefined)
inactive: COLO 205 > 100 µM | NCI/ADR-RES > 100 µM | HCC 2998 > 100 µM | SK-MEL-5 > 100 µM | SN12C > 100 µM | MCF7 > 100 µM | LOX IMVI > 100 µM | SK-MEL-28 > 100 µM | KM12 > 100 µM | CAKI-1 > 100 µM | DU-145 > 100 µM | MOLT-4 > 100 µM | HT-29 > 100 µM | NCI-H522 > 100 µM | HOP-62 > 100 µM | NCI-H460 > 100 µM | U-251 > 100 µM | SF-268 > 100 µM

COc1ccc(OC)c(C2CCc3c(cnc4nc(N)nc(N)c34)C2)c1 (centres undefined)
inactive: COLO 205 16.1 µM | NCI/ADR-RES 55.3 µM | HCC 2998 12.3 µM | SK-MEL-5 11 µM | SN12C 8.83 µM | MCF7 10.1 µM | LOX IMVI 1.32 µM | SK-MEL-28 13.7 µM | KM12 11.4 µM | CAKI-1 14 µM | DU-145 13.9 µM | MOLT-4 2.49 µM | HT-29 2 µM | NCI-H522 6.24 µM | HOP-62 12.2 µM | NCI-H460 2.07 µM | U-251 4.79 µM | SF-268 4.21 µM

COc1c(O)cc2c(c1O)C(=O)C1=C(CCCC1)C2=O
inactive: COLO 205 19.1 µM | NCI/ADR-RES 17.3 µM | HCC 2998 21.9 µM | SK-MEL-5 23.9 µM | SN12C 20.6 µM | MCF7 33.9 µM | LOX IMVI 14.7 µM | SK-MEL-28 24 µM | KM12 20.2 µM | CAKI-1 27.5 µM | DU-145 22.3 µM | MOLT-4 4.8 µM | HT-29 21.7 µM | NCI-H522 13 µM | HOP-62 33.4 µM | NCI-H460 27.1 µM | U-251 21 µM | SF-268 24.4 µM

CN(C)CCNc1ccc(NCCN(C)C)c2c1C(=O)c1ncsc1C2=O
inactive: COLO 205 12.4 µM | NCI/ADR-RES 35.7 µM | HCC 2998 15 µM | SK-MEL-5 15.8 µM | SN12C 10.9 µM | MCF7 7.33 µM | LOX IMVI 8.53 µM | SK-MEL-28 15.3 µM | KM12 11.4 µM | CAKI-1 16.9 µM | DU-145 13.2 µM | MOLT-4 1.94 µM | HT-29 6.46 µM | SNB-75 15.8 µM | NCI-H522 11.6 µM | HOP-62 13.2 µM | U-251 14 µM | SF-268 15.4 µM

Cc1ccc(NC(=O)c2cc(S(=O)(=O)N3CCNNC3=O)c(S)cc2Cl)cc1
inactive: COLO 205 > 100 µM | NCI/ADR-RES > 100 µM | HCC 2998 > 100 µM | SK-MEL-5 > 100 µM | SN12C > 100 µM | MCF7 > 100 µM | LOX IMVI > 100 µM | SK-MEL-28 > 100 µM | KM12 > 100 µM | CAKI-1 > 100 µM | DU-145 > 100 µM | MOLT-4 > 100 µM | SNB-75 > 100 µM | NCI-H522 26.5 µM | NCI-H460 > 100 µM | U-251 > 100 µM | SF-268 > 100 µM

O=c1c2cc(Cl)cc(Cl)c2oc2nc3n(c(=O)c12)CCCS3
inactive: COLO 205 > 100 µM | NCI/ADR-RES > 100 µM | HCC 2998 > 100 µM | SK-MEL-5 > 100 µM | SN12C > 100 µM | MCF7 70.5 µM | SK-MEL-28 > 100 µM | KM12 > 100 µM | CAKI-1 > 100 µM | DU-145 > 100 µM | MOLT-4 57.8 µM | SNB-75 > 100 µM | NCI-H522 16.7 µM | HOP-62 > 100 µM | NCI-H460 > 100 µM | U-251 > 100 µM | SF-268 > 100 µM

COc1cc2c(cc1OCCCCN1C(=O)c3cccc4cccc(c34)C1=O)N=C[C@@H]1CCCN1C2=O
inactive: COLO 205 2.72 µM | NCI/ADR-RES 6.52 µM | HCC 2998 6.97 µM | SK-MEL-5 2.01 µM | SN12C 3.53 µM | MCF7 1.69 µM | LOX IMVI 3.83 µM | SK-MEL-28 11.7 µM | KM12 3.57 µM | CAKI-1 2.58 µM | DU-145 4.01 µM | MOLT-4 3.25 µM | HT-29 5.73 µM | NCI-H522 1.68 µM | HOP-62 7.73 µM | NCI-H460 3.96 µM | U-251 3.24 µM | SF-268 4.92 µM

C=C1CCc2ccccc2C1=O
inactive: COLO 205 > 100 µM | NCI/ADR-RES > 100 µM | HCC 2998 > 100 µM | SK-MEL-5 > 100 µM | SN12C > 100 µM | MCF7 56 µM | KM12 > 100 µM | CAKI-1 > 100 µM | DU-145 > 100 µM | MOLT-4 64.7 µM | HT-29 47.2 µM | SNB-75 > 100 µM | NCI-H522 > 100 µM | HOP-62 > 100 µM | NCI-H460 > 100 µM | U-251 > 100 µM | SF-268 > 100 µM
